We go through 17 compounds from US10512265B2, “Pesticidally active heterocyclic derivatives with sulphur containing substituents” (Syngenta Participations AG, priority 2015, dated 2019).

Data set [1] relates to Diabrotica balteata (corn root worm). Nature of the data set: Example B4: activity against Diabrotica balteata, sprayed maize sprouts. In kind it is in vivo. As to conditions: 96 h, application rate 200 ppm, L2 larvae, 4 days after infestation, read-out: effect in at least one of the two categories (mortality or growth inhibition). As for the experimental part: Example B4: Activity Against Diabrotica Balteata (Corn Root Worm)
Maize sprouts, placed on an agar layer in 24-well microtiter plates were treated with aqueous test solutions prepared from 10′000 ppm DMSO stock solutions by spraying. After drying, the plates were infested with L2 larvae (6 to 10 per well). The samples were assessed for mortality and growth inhibition in comparison to untreated samples 4 days after infestation.

In data set [2] the test system is Plutella xylostella (diamond back moth). Nature of the data set: Example B3: activity against Plutella xylostella, treated artificial diet. In kind it is in vivo. As to conditions: 120 h, application rate 200 ppm, L2 larvae, 5 days after infestation, read-out: effect in at least one of the two categories (mortality or growth inhibition). As to the method: Example B3: Activity Against Plutella xylostella (Diamond Back Moth)
24-well microtiter plates with artificial diet were treated with aqueous test solutions prepared from 10′000 ppm DMSO stock solutions by pipetting. After drying, the plates were infested with L2 larvae (10 to 15 per well). The samples were assessed for mortality and growth inhibition in comparison to untreated samples 5 days after infestation.

In data set [3] the test system is Frankliniella occidentalis (western flower thrips). Nature of the data set: Example B7: activity against Frankliniella occidentalis, sprayed sunflower leaf discs. In kind it is in vivo. As to conditions: foliar, 168 h, application rate 200 ppm, population of mixed ages, 7 days after infestation. As for the experimental part: Example B7: Activity Against Frankliniella occidentalis (Western Flower Thrips)
Sunflower leaf discs were placed on agar in 24-well microtiter plates and sprayed with aqueous test solutions prepared from […] stock solutions. After drying the leaf discs were infested with a Frankliniella population of mixed ages. The samples were assessed for mortality 7 days after infestation.

The test system of data set [4] is Aedes aegypti (yellow fever mosquito). Nature of the data set: Example B11: activity against Aedes aegypti, dry deposits in tissue culture plates. The settings on record: 200 ppm in ethanol, dry deposit, adult females, after 48 h and/or 24 h. In kind it is in vivo. As to the method:
Example B11: Activity Against Aedes Aegypti (Yellow Fever Mosquito)
Test solutions, at an application rate of 200 ppm in ethanol, were applied to 12-well tissue culture plates. Once the deposits were dry, five, two to five days old adult female Aedes aegypti were added to each well, and sustained with a 10% sucrose solution in a cotton wool plug. Assessment of knockdown was made one hour after introduction, and mortality was assessed at 24 and 48 hours after introduction.

Data set [5] concerns Spodoptera littoralis (Egyptian cotton leaf worm). Nature of the data set: Example B1: activity against Spodoptera littoralis, sprayed cotton leaf discs. In kind it is in vivo. As to conditions: foliar, 72 h, application rate 200 ppm, L1 larvae, 3 days after infestation, read-out: control of Spodoptera littoralis (at least one of mortality, anti-feedant effect, growth inhibition). As for the experimental part:
Example B1: Activity Against Spodoptera littoralis (Egyptian Cotton Leaf Worm)
Cotton leaf discs were placed on agar in 24-well microtiter plates and sprayed with aqueous test solutions prepared from 10′000 ppm DMSO stock solutions. After drying the leaf discs were infested with five L1 larvae. The samples were assessed for mortality, anti-feedant effect, and growth inhibition in comparison to untreated samples 3 days after infestation. Control of Spodoptera littoralis by a test sample is when at least one of mortality, anti-feedant effect, and growth inhibition is higher than the untreated sample.

Data set [6] concerns Myzus persicae (green peach aphid). Nature of the data set: Example B5: activity against Myzus persicae, sprayed sunflower leaf discs. In kind it is in vivo. The settings on record: foliar, 144 h, application rate 200 ppm, aphid population of mixed ages, 6 days after infestation. As to the method: Example B5: Activity Against Myzus persicae (Green Peach Aphid)
Sunflower leaf discs were placed on agar in a 24-well microtiter plate and sprayed with aqueous test solutions prepared from 10′000 ppm DMSO stock solutions. After drying, the leaf discs were infested with an aphid population of mixed ages. The samples were assessed for mortality 6 days after infestation.

The test system of data set [7] is Euschistus heros (neotropical brown stink bug). Nature of the data set: Example B9: activity against Euschistus heros, sprayed soybean leaf. As to conditions: 120 h, application rate 200 ppm, N-2 nymphs, 5 days after infestation, read-out: effect in at least one of the two categories (mortality or growth inhibition). In kind it is in vivo. As to the method:
Example B9: Activity Against Euschistus heros(Neotropical Brown Stink Bug)
Soybean leaf on agar in 24-well microtiter plates were sprayed with aqueous test solutions prepared from 10′000 ppm DMSO stock solutions. After drying the leaf were infested with N-2 nymphs. The samples were assessed for mortality and growth inhibition in comparison to untreated samples 5 days after infestation.

The subject of data set [8] is Spodoptera littoralis (Egyptian cotton leaf worm). Nature of the data set: Example B2: activity against Spodoptera littoralis, systemic via lettuce grown on treated agar. In kind it is in vivo. The settings on record: 144 h, test rate 12.5 ppm, in agar, uptake by lettuce roots, Spodoptera eggs, 6 days after infestation, read-out: effect in at least one of the three categories (mortality, anti-feedancy, or growth inhibition). From the text: Example B2: Activity Against Spodoptera littoralis (Egyptian Cotton Leaf Worm)
Test compounds were applied by pipette from 10′000 ppm DMSO stock solutions into 24-well plates and mixed with agar. Lettuce seeds were placed on the agar and the multi well plate was closed by another plate which contains also agar. After 7 days the roots have absorbed the compound and the lettuce has grown into the lid plate. The lettuce leafs were now cut off into the lid plate. Spodoptera eggs were pipetted through a plastic stencil on a humid gel blotting paper and the plate closed with it.
The samples were assessed for mortality, anti-feedant effect and growth inhibition in comparison to untreated samples 6 days after infestation.

The subject of data set [9] is Myzus persicae (green peach aphid). Nature of the data set: Example B6: activity against Myzus persicae, roots of pea seedlings in test solution. In kind it is in vivo. As to conditions: 144 h, test rate 24 ppm, roots of infested pea seedlings in test solution, 6 days. As to the method:
Example B6: Activity Against Myzus persicae (Green Peach Aphid)
Roots of pea seedlings infested with an aphid population of mixed ages were placed directly in the aqueous test solutions prepared from 10′000 DMSO stock solutions. The samples were assessed for mortality 6 days after placing seedlings in test solutions.

Data set [10] deals with Bemisia tabaci (cotton white fly). Nature of the data set: Example B8: activity against Bemisia tabaci, sprayed cotton leaf discs. As to conditions: foliar, 144 h, application rate 200 ppm, adult white flies, 6 days after incubation. In kind it is in vivo. As for the experimental part:
Example B8: Activity Against Bemisia tabaci (Cotton White Fly)
Cotton leaf discs were placed on agar in 24-well microtiter plates and sprayed with aqueous test solutions prepared from 10′000 ppm DMSO stock solutions. After drying the leaf discs were infested with adult white flies. The samples were checked for mortality 6 days after incubation.

The term mortality denotes the share of the test organisms that died. As usually defined, the pest or weed control is the degree to which the test organism was suppressed or injured, in per cent. High values mean strong suppression, low ones weak suppression. For the compound `CCS(=O)(=O)c1cc(-c2ccc(Cl)cc2)cnc1-c1ncc(-c2ccc(C(F)(F)F)cc2)n1C` [Compound P12], the percent effect (mortality or growth inhibition) at 200 ppm in data set [1] and in data set [2] was ≥ 80% each time. Further, the mortality at 200 ppm in [3] and in data set [5] was ≥ 80% each time. In addition, in [4], the pest or weed control at 200 ppm was ≥ 80%.

Turning to `CCS(=O)(=O)c1cc(-c2ncccn2)cnc1-c1ncc(-c2ccc(C(F)(F)F)nc2)n1C` [Compound P8], the mortality at 200 ppm in data set [6], in data set [3] and in data set [5] was ≥ 80% each time. Moreover, the percent effect (mortality or growth inhibition) at 200 ppm in [1], in [2] and in data set [7] was ≥ 80% in each case. Further, in data set [8], the percent control (mortality, anti-feedancy or growth inhibition) at 12.5 ppm is ≥ 80%. Further, the mortality at 24 ppm in data set [9] was ≥ 80%.

Usually melting point stands for the temperature, or range, at which the solid turns liquid. For the compound `CCS(=O)(=O)c1cc(-c2cccc(F)c2)cnc1-c1ncc(-c2cncc(C(F)(F)F)c2)n1C` [Compound P18], the melting point lay within 155 to 157 °C.

For the compound `CCS(=O)(=O)c1cc(-c2ncccn2)cnc1-c1ncc(-c2cncc(C(F)(F)F)c2)n1C` [Compound P10], the mortality at 200 ppm in data set [6], in [3] and in data set [5] was ≥ 80% throughout. Besides, the percent effect (mortality or growth inhibition) at 200 ppm in [1], in [2] and in data set [7] was ≥ 80% throughout. For the same compound, the percent control (mortality, anti-feedancy or growth inhibition) at 12.5 ppm in [8] is ≥ 80%. The mortality at 24 ppm in data set [9] was ≥ 80%.

On to `CCS(=O)(=O)c1cc(-c2cccc(F)c2)cnc1-c1ncc(-c2ccc(C(F)(F)F)nc2)n1C` [Compound P16], for which the melting point was in the range of 170 to 172 °C.

In turn, `CCS(=O)(=O)c1cc(-c2cccc(F)c2)cnc1-c1ncc(-c2cnc(C(F)(F)F)nc2)n1C` [Compound P17] yielded a melting point of 193 to 195 °C.

As for `CCS(=O)(=O)c1cc(-c2ccc(Cl)cc2)cnc1-c1ncc(-c2ccc(S(=O)(=O)C(F)(F)F)cc2)n1C` [Compound P9], the percent effect (mortality or growth inhibition) at 200 ppm in data set [1] and in data set [2] was ≥ 80% throughout. In addition, the pest or weed control at 200 ppm in data set [4] was ≥ 80%. The mortality at 200 ppm in data set [5] was ≥ 80%.

`CCS(=O)(=O)c1cc(-c2ccc(Cl)cc2)cnc1-c1ncc(-c2ccc(C(F)(F)F)nc2)n1C` [Compound P5]: the mortality at 200 ppm in data set [6], in data set [3] and in data set [5] was ≥ 80% throughout. Further, the percent effect (mortality or growth inhibition) at 200 ppm in [1], in data set [2] and in data set [7] was ≥ 80% each time. Also, the pest or weed control at 200 ppm in [4] was ≥ 80%.

On to `CCS(=O)(=O)c1cc(-c2ccc(C(F)(F)F)cc2)cnc1-c1ncc(-c2ccc(C(F)(F)F)cc2)n1C` [Compound P2, 3-ethylsulfonyl-2-[1-methyl-5-[4-(trifluoromethyl)phenyl]imidazol-2-yl]-5-[4-(trifluoromethyl)phenyl]pyridine], for which the percent effect (mortality or growth inhibition) at 200 ppm in data set [1] and in data set [2] was ≥ 80% throughout. For the same compound, the mortality at 200 ppm in data set [3] and in [5] was ≥ 80% throughout. In addition, the pest or weed control at 200 ppm in [4] is ≥ 80%.

Compound `CCS(=O)(=O)c1cc(-c2ncccn2)cnc1-c1ncc(-c2cnc(C(F)(F)F)nc2)n1C` [Compound P15] registered a melting point of 231 to 233 °C.

Regarding `CCS(=O)(=O)c1cc(-c2ccccc2)cnc1-c1ncc(-c2ccc(C(F)(F)F)nc2)n1C` [Compound P6], the mortality at 200 ppm in data set [6], in [3] and in data set [5] was ≥ 80% in each case. Further, the percent effect (mortality or growth inhibition) at 200 ppm in data set [1] and in data set [2] was ≥ 80% throughout. Also, the percent control (mortality, anti-feedancy or growth inhibition) at 12.5 ppm in [8] was ≥ 80%.

Take `CCS(=O)(=O)c1cc(-c2ccc(C(F)(F)F)cc2)cnc1-c1ncc(-c2ccc(C(F)(F)F)nc2)n1C` [Compound P1, 3-ethylsulfonyl-2-[1-methyl-5-[6-(trifluoromethyl)-3-pyridyl]imidazol-2-yl]-5-[4-(trifluoromethyl)phenyl]pyridine]: the percent effect (mortality or growth inhibition) at 200 ppm in data set [1], in data set [2] and in data set [7] was ≥ 80% throughout. Besides, the mortality at 200 ppm in data set [3] and in data set [5] was ≥ 80% throughout. In addition, the pest or weed control at 200 ppm in [4] is ≥ 80%.

Take `CCS(=O)(=O)c1cc(-c2ccc(F)cc2)cnc1-c1ncc(-c2ccc(F)cc2)n1C` [Compound P4]: the mortality at 200 ppm in [6], in data set [10] and in data set [5] was ≥ 80% throughout. The percent effect (mortality or growth inhibition) at 200 ppm in data set [1] and in data set [2] was ≥ 80% throughout. Also, in data set [8], the percent control (mortality, anti-feedancy or growth inhibition) at 12.5 ppm is ≥ 80%.

Consider `CCS(=O)(=O)c1cc(-c2ccc(Cl)cc2)cnc1-c1ncc(-c2cccc(SC(F)(F)F)c2)n1C` [Compound P13], for which the percent effect (mortality or growth inhibition) at 200 ppm in data set [1] and in data set [2] was ≥ 80% throughout. Also, in data set [5], the mortality at 200 ppm is ≥ 80%.

`CCS(=O)(=O)c1cc(-c2ncc(Cl)cn2)cnc1-c1ncc(-c2cnc(C(F)(F)F)nc2)n1C` [Compound P14] displayed a melting point of 224 to 226 °C.

Regarding `CCS(=O)(=O)c1cc(-c2ccc(Cl)cc2)cnc1-c1ncc(-c2ccc(SC(F)(F)F)cc2)n1C` [Compound P7], the percent effect (mortality or growth inhibition) at 200 ppm in data set [1] and in data set [2] was ≥ 80% in each case. For the same compound, in data set [4], the pest or weed control at 200 ppm was ≥ 80%. In data set [5], the mortality at 200 ppm is ≥ 80%.

As for `CCS(=O)(=O)c1cc(-c2ncc(Cl)cn2)cnc1-c1ncc(-c2ccc(C(F)(F)F)nc2)n1C` [Compound P11], the mortality at 200 ppm in [6] and in data set [5] was ≥ 80% in each case. Besides, the percent effect (mortality or growth inhibition) at 200 ppm in data set [1], in data set [2] and in [7] was ≥ 80% each time. Besides, the pest or weed control at 200 ppm in [4] was ≥ 80%. The percent control (mortality, anti-feedancy or growth inhibition) at 12.5 ppm in [8] is ≥ 80%.
